According to patent publication US20260327211A1, “MODULATORS OF A POTASSIUM CHANNEL AND OF TRPV1 CHANNEL AND USES THEREOF” (Bsense Bio Therapeutics Ltd., priority 2023, published 2026):

Tests used:
Cannabinoid CB1-2 = test: Functional screening panel, Cannabinoid CB1-2; type: biochemical; conditions: up to 10 micromolar
Procedure: (§1) A broad panel of 78 recombinant targets was tested for pharmacologic activity in vitro through a variety of functional assays (Eurofins DiscoverX, USA), as part of the National Institute of Neurological Disorders and Stroke (NINDS) Preclinical Screening Platform for Pain (PSPP) program. The biological targets for the in vitro profiling have been selected based on avoiding opioid receptor stimulation and targets known to be associated with adverse events or targeted by drugs of abuse. […] For each test, a reference compound was evaluated at the target of interest as a positive control.

NMDA = test: Functional selectivity panel, NMDA; type: biochemical; conditions: up to 10 micromolar
Procedure: as §1

OATP1B1 = OATP1B1 (Homo sapiens, UniProt Q9Y6L6); test: Transporter substrate, OATP1B1; type: in vitro ADME; conditions: role: substrate
Procedure: Additionally, compound 760 was tested for its capability to act as a transporter substrate for various transporters, and was not found to be a transporter substrate for any of the tested transporters.

In vitro micronucleus = type: cell-based; conditions: hamster, cho-k1 cells, read-out: Cytotoxicity (%) Absolute EC50
Procedure: (§2) The micronucleus assay was performed according to the regulatory guidelines. In brief, CHO-K1 cells were plated at 10000 cells/well in 3 plates and incubated In CHO-K1 growth medium (containing F12K, 10% FBS and 1% PS) overnight.
(§3) As a control for the S9 treatment, plate No. 1, cells were treated with cyclophosphamide as a positive control, for 3 hours. For plate No. 2, without S9 treatment, cells were treated with mitomycin C as a positive control, compounds for 3 hours, and for plate No. 3, without S9 treatment, cells were treated with bleomycin sulfate as a positive control continuously for 24 hours.
(§4) On the following day, 6 μg/mL of cytochalasin B were added to each well and plates were further incubated overnight. In the day after medium was replaced with a combined 10 μg/mL Hoechst dye solution and 0.5 μM calcein-AM in 100 μL warm DPBS for 30 minutes and the plates were scanned using CQ1 high-content analysis system.

CHO-K1 cells = test: In vitro micronucleus; type: cell-based
Procedure: as §2, §3, §4

78 recombinant targets = test: In-vitro selectivity panel, 78 targets; conditions: all 9 modulated targets of 78
Procedure: as §1
In addition, based on efficacious exposures in vivo, the separation from other targets is still greater than 1000-fold, further supporting the specificity of the compound's MOA.

rats = test: Modified Irwin test; type: in vivo, rat; conditions: up to 300 mg/kg, male and female
Procedure: Twenty male and twenty female Sprague Dawley rats from Envigo were used in the study. […] Rats were housed in cages containing BedO'Cob® bedding with Nylabones® for enrichment. All rats were examined, handled, and weighed prior to initiation of the study to ensure adequate health and suitability. During the study, 12/12 light/dark cycles were maintained. The room temperature was maintained between 2° and 23° C. with a relative humidity maintained around 50%. […] The test was performed during the animal's light cycle phase (6 am to 6 μm), with observations targeted to be carried out between 8 am and 2 μm. Each vehicle or dose group contained 8 rats, 4 males and 4 females.
The day prior to assessment, rats were single housed in clean rat polycarbonate cages and food was removed. Animals were allocated to different groups based on body weight, under the concurrent restriction that cage mates could not be in the same treatment groups. […]
On the day of assessment, rats were scored on 39 behaviors (not shown). 1 hour prior to dosing, water was removed from the home cage baseline (BL) and behavioral observations were recorded.
Ten animals were assessed per day over 4 days. One male and one female subject from each treatment group was assessed by the observers in a pre-determined order that differed each day. […]

[1] = tested on: Chronic Post-Ischemia Pain (CPIP) rats; test: Chronic Post-Ischemia Pain (CPIP) model, von Frey; type: in vivo, rat; conditions: 100 mg/kg oral, 6 hours post-dose
Procedure: (§5) All animal experiments were carried out according to the Guide for the Care and Use of Laboratory Animals (2011 edition) and approved by the Israel National Institutional Animal Care and Use Committee (IACUC). Young adult male SD rats (Envigo RMS, Israel), were used for in vivo efficacy: Spared Nerve Injury (SNI), Distal Tibial Injury (DTI) and Post-operative Pain (POP), 200-220 grams, Chronic Post-Ischemia Pain (CPIP) 275-325 grams, Monosodium iodoacetate-induced osteoarthritis (MIA-OA) 180-220 grams; for in vivo safety: 200-250 grams at study initiation. […] The health status of the animals used in this study was examined upon their arrival. Only animals in good health were acclimatized to laboratory conditions and were used in the studies. All studies were performed following at least five days of animal acclimation. During acclimation and throughout the entire study duration, animals were housed within a limited-access rodent facility and kept in groups with a maximum of 2-3 rats per polypropylene cage. The cages were fitted with solid bottoms and filled with sterile wood shavings as bedding material. […] Water was monitored periodically. […]
On study day 14, the animal's response to von Frey filaments was measured. […]

[2] = tested on: Post-operative Pain (POP) rats; test: Post-operative Pain model, mechanical PWT; type: in vivo, rat; conditions: 100 mg/kg, 6 hours post-dose
Procedure: as §5
Post-operative Pain (POP): For this model, animals were anesthetized by medetomidine/ketamine sodium IP. […] On the following day, animal responses to von Frey (VF) filaments and hot-plate testing were recorded. […]

Sequence of OATP1B1 (Q9Y6L6 whole entry): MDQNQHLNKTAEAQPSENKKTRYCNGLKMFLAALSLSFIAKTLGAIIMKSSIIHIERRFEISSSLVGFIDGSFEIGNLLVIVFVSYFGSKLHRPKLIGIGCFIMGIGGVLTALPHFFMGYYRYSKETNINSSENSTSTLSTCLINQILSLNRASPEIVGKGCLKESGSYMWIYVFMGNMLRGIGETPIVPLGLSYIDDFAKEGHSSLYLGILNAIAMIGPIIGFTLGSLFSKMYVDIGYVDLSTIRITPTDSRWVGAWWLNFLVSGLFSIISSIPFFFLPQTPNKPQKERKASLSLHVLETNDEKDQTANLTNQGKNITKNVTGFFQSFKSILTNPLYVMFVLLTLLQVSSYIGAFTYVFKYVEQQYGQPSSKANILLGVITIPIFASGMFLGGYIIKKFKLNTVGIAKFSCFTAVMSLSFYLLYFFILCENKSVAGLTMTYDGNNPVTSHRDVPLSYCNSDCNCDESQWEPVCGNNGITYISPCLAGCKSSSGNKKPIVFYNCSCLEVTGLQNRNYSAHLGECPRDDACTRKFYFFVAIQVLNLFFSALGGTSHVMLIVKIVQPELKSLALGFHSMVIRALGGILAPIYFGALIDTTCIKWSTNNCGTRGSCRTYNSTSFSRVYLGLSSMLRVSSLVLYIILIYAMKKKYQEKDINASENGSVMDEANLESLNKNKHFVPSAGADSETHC

Row | Structure (SMILES) | Effect on Cannabinoid CB1-2 (Cannabinoid CB1-2) | Effect on NMDA (NMDA) | OATP1B1 substrate (OATP1B1) | CC50 at 3 h (In vitro micronucleus; Plate 2 without S9, 3 hours) [µM] | CC50 at 24 h (In vitro micronucleus; Plate 3 without S9, 24 hours) [µM] | Micronucleus formation (CHO-K1 cells) | Micronucleus response Absolute MEC (CHO-K1 cells; Plate 1 with S9, 3 hours) [µM] | CC50 (CHO-K1 cells; Plate 1 with S9, 3 hours, read-out: Cytotoxicity (%) Absolute EC50) [µM] | Micronucleus response Absolute MEC (CHO-K1 cells; Plate 2 without S9, 3 hours) [µM] | Micronucleus response Absolute MEC (CHO-K1 cells; Plate 3 without S9, 24 hours) [µM] | IC50 (78 recombinant targets) [µM] | Modified Irwin FOB (rats) | Reversal of mechanical PWT [1] [%] | Mechanical PWT [2]
1 | O=C(Cc1nccc(-n2cc(Cl)c3cc(Cl)cc(Cl)c32)n1)NC1COCC1O (centres unmarked) [Compound 760] | no effect | no effect | not a transporter substrate | > 200 | 81.2 | lacks significant micronucleus formation | >200 | > 200 | >200 | >200 |  |  |  | 
2 | O=C(Cc1cncc(-n2cc(Cl)c3cc(Cl)cc(Cl)c32)c1)N[C@@H]1COC[C@H]1O [Compound 661] |  |  |  |  |  |  |  |  |  |  | > 1.4 | no effects up to 300 mg/kg | 27.6 | did not affect the mechanical PWT
